Experiment [1] has as its target T1, recombinant C. albicans Eno1 (Candida albicans, UniProt P30575).
T1 construct: the full-length ENO1 gene from C. albicans was cloned into the pET-21a (+) plasmid; made in house; host or cells: E. coli BL21(DE3)
The experiment is described as follows: Target protein competition experiment between BE and label-BE (TAMRA-N3 reporter). The conditions noted are these: preincubation with 100 μM BE, then 10 μM label-BE; E. coli lysates with recombinant CaEno1. The format is binding. The text has this:
FIG 2 Eno1 is a target of BE. (A) Schematic diagram of synthesis label-BE. Label-BE is synthesized by intermediate TPD-10a with benzyl bromide structure and triacetylated BE. (B) The molecular structure of label-BE. Label-BE contains a trifluoromethylphenyl diazo heterocyclic propylene group (marked by a red dotted line) as a photoaffinity group to enhance the binding of label-BE to its target proteins and an alkyne group (marked by a blue dotted line) connected with an azide group (from the TAMRA-N3 or biotin-N3) by a copper-catalyzed azide-alkyne cycloaddition. (C) The molecular structures of TAMRA-N3 and biotin-N3. […] After separation of SDS-PAGE, label-BE-targeted proteins were visualized by in-gel fluorescence scanning. The three fluorescent bands in lane 3 (indicated by red triangles) were cut out and pooled and then analyzed by LC-MS/MS. […] The brighter band in lane 3 (indicated by red triangle) was then cut out and analyzed by LC-MS/MS. […]
Target protein competition experiments between BE and label-BE were performed as described previously ([51], [52]). […] The bands with changes in fluorescence brightness were then cut off and analyzed by LC-MS/MS; for labeling label-BE with biotin-N3, protein solutions were enriched with streptavidin-conjugated beads. […]

The subject of experiment [2] is C. albicans eno1/eno1 mutant strain. The experiment in a line: Galleria mellonella infection model, eno1/eno1 strain. The format is in vivo, Candida albicans. Conditions: G. mellonella, 10 mg/kg. The procedure:
To assess whether Eno1 is a therapeutic target of BE, we constructed a homozygous deletion strain for the ENO1 gene (eno1/eno1). We then investigated the difference in the antifungal efficacy of BE on the infections caused by the parent strain SN152 and the eno1/eno1 strain in the Galleria mellonella infection model. We divided the G. mellonella into 5 groups, with 10 larvae in each group. All 10 larvae died after a 24-h infection with the SN152 strain, while only 3 larvae died after 24 h when infected with the eno1/eno1 strain; the remaining larvae died within 7 days. Compared with the group infected with the parent strain, the survival time of the group infected with the eno1/eno1 strain was longer (P < 0.01) (Fig. 4A). […] The survival rate of larvae in the BE (10 mg/kg of body weight)-treated, SN152 strain-infected group was extended by 30%, compared with that in the group infected with the SN152 strain but without antifungal drug treatment (P < 0.001) (Fig. 4B). […] All 10 larvae in the BE-treated group died within 6 days, and all 10 larvae without BE treatment were killed within 7 days (Fig. 4C). However, FLC (10 mg/kg) can extend the survival rate of larvae infected by the eno1/eno1 strain by 60% (P < 0.01) (Fig. 4D) compared with the group infected with the eno1/eno1 strain without antifungal drug treatment.
FIG 4 Eno1 acts as a therapeutic target of BE. […] Each curve represents a group of 10 larvae (n =10) monitored daily for survival for up to 10 days after infection. […]
Virulence testing of C. albicans was done in Galleria mellonella as described previously ([56]). […] After growth in YPD media overnight at 30°C and 200 rpm, C. albicans SN152 cells or eno1/eno1 mutant cells were washed with PBS 3 times and diluted to the desired concentration (1 × 10^7 cells/mL) determined by counting with a hemacytometer. […] The death of G. mellonella was assessed daily and analyzed statistically by the Kaplan-Meier method (log-rank test).

This note sets out measurements from publication PMC9430770 (Microbiology Spectrum, 2022).

T1 sequence (P30575 whole entry): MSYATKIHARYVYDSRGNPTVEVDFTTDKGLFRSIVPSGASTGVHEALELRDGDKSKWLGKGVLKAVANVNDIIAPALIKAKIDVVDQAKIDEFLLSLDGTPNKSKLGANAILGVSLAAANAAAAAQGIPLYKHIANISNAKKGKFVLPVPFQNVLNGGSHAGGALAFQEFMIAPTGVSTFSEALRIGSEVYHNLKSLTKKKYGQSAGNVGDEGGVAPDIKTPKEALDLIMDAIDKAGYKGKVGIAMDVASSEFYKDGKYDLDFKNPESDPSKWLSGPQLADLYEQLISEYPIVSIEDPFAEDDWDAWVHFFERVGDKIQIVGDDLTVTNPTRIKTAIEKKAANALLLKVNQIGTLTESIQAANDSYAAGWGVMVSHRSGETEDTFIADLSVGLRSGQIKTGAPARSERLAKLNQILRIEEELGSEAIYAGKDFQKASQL

On to `O=c1cc(-c2ccccc2)oc2cc(O)c(O)c(O)c12` [BE, Baicalein], for which the “competition with label-BE for the CaEno1 band (in-gel fluorescence)” value in experiment [1] is “remarkably reduce the fluorescent brightness”. Further, the “survival rate of larvae extended versus infected group without drug treatment” value in experiment [2] is “no significant effect”. Also, the “time within which all 10 larvae died” value in experiment [2] (eno1/eno1-infected) is ≤ 6 days.
